Here are results for 19 molecules from PubChem BioAssay AID328 (DTP/NCI, 2004).

The subject of this test is BDF1 mice, P388 leukemia ip, median survival T/C. Nature of the test: NCI In Vivo Anticancer Drug Screen. Data for tumor model P388 Leukemia (intraperitoneal) in B6D2F1 (BDF1) mice. Conditions: endpoint: median survival time, higher = longer survival. In a few lines:
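Reported as T/C, where T is the survival measurement in dosed animals and C the same measurement in vehicle controls.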

[1] abbreviates: dose: 12.5 mg/kg/injection, schedule: Q01DX009 (ip), vehicle: saline.
[2] abbreviates: dose: 100.0 mg/kg/injection, schedule: Q04DX003 (ip), vehicle: saline with Tween-80.
Setting [3] is: dose: 200.0 mg/kg/injection, schedule: Q04DX003 (ip), vehicle: saline with Tween-80.
[4] abbreviates: dose: 400.0 mg/kg/injection, schedule: Q04DX003 (ip), vehicle: saline with Tween-80.
Setting [5] is: dose: 50.0 mg/kg/injection, schedule: Q01DX009 (ip), vehicle: saline with Tween-80.
[6] abbreviates: dose: 100.0 mg/kg/injection, schedule: Q01DX009 (ip), vehicle: saline with Tween-80.
[7] abbreviates: dose: 200.0 mg/kg/injection, schedule: Q01DX009 (ip), vehicle: saline with Tween-80.
[8] abbreviates: dose: 100.0 mg/kg/injection, schedule: Q01DX009 (ip), vehicle: Klucel (hydroxypropylcellulose) (HPC).
The mark [9] stands for this setting: dose: 200.0 mg/kg/injection, schedule: Q01DX009 (ip), vehicle: Klucel (hydroxypropylcellulose) (HPC).
Where [10] appears, read: dose: 25.0 mg/kg/injection, schedule: Q01DX009 (ip), vehicle: saline with Tween-80.
Setting [11] is: dose: 100.0 mg/kg/injection, schedule: Q04DX003 (ip), vehicle: Klucel (hydroxypropylcellulose) (HPC).
Where [12] appears, read: dose: 200.0 mg/kg/injection, schedule: Q04DX003 (ip), vehicle: Klucel (hydroxypropylcellulose) (HPC).
Where [13] appears, read: dose: 400.0 mg/kg/injection, schedule: Q01DX009 (ip), vehicle: Klucel (hydroxypropylcellulose) (HPC).
The mark [14] stands for this setting: dose: 400.0 mg/kg/injection, schedule: Q04DX003 (ip), vehicle: Klucel (hydroxypropylcellulose) (HPC).
The mark [15] stands for this setting: dose: 12.5 mg/kg/injection, schedule: Q01DX009 (ip), vehicle: saline with Tween-80.

The structures appear in SMILES notation. Where “and” joins values, the source holds several entries; their conditions need not be identical. Equal values may be shown once. Inconclusive results and toxic doses are left out. Non-standard residues stand in square brackets, D forms with d. Residues, ends and D or L forms follow the SMILES beside them. *: point of attachment. Nle = CCCC[CH](N)C(=O)O; Cbz = O=C(OCc1ccccc1)*; OBn = c1ccc(CO*)cc1

With `CC1(C)N=C(N)N=C(N)N1c1cccc(CCCCc2ccc(Cl)c(S(=O)(=O)F)c2)c1`, the T/C was 100 % of control (dose: 1.8 mg/kg/injection, schedule: Q01DX009 (ip), vehicle: saline); 112 % of control (dose: 3.13 mg/kg/injection, schedule: Q01DX009 (ip), vehicle: saline); 114 % of control (dose: 4.0 mg/kg/injection, schedule: Q01DX009 (ip), vehicle: saline); 122 % of control (dose: 6.0 mg/kg/injection, schedule: Q01DX009 (ip), vehicle: saline); 109 % of control (dose: 7.0 mg/kg/injection, schedule: Q04DX003 (ip), vehicle: saline); 107 % of control (dose: 9.0 mg/kg/injection, schedule: Q01DX009 (ip), vehicle: saline). In addition, the T/C runs as follows: under setting [1], 120 % of control; (dose: 14.0 mg/kg/injection, schedule: Q01DX009 (ip), vehicle: saline) 150 % of control; (dose: 14.0 mg/kg/injection, schedule: Q04DX003 (ip), vehicle: saline) 118 % of control; (dose: 28.0 mg/kg/injection, schedule: Q04DX003 (ip), vehicle: saline) 118 % of control; (dose: 56.0 mg/kg/injection, schedule: Q04DX003 (ip), vehicle: saline) 104 % of control.
Turning to `O=c1c2ccccc2c2c3c1cccc3c1cccc3c(=O)c4ccccc4c2c31`, the T/C by setting is: under setting [2], 86 % of control; under setting [3], 90 % of control; under setting [4], 90 % of control.
As to `O=[N+]([O-])c1cccc(/C=C/C=C/c2ccc(S(=O)(=O)F)cc2Cl)c1`, the T/C is 100 % of control (dose: 100.0 mg/kg/injection, schedule: Q01DX001 (ip), vehicle: Klucel (hydroxypropylcellulose) (HPC)); 95 % of control (dose: 200.0 mg/kg/injection, schedule: Q01DX001 (ip), vehicle: Klucel (hydroxypropylcellulose) (HPC)); 95 % of control (dose: 400.0 mg/kg/injection, schedule: Q01DX001 (ip), vehicle: Klucel (hydroxypropylcellulose) (HPC)).
Regarding `CCCCC(NC(=O)C1CCCN1C(=O)OCc1ccccc1)C(=O)OCc1ccccc1` (stereo not drawn) (Cbz-Pro-[Nle]-OBn; configuration not given here), the T/C is, setting by setting: (dose: 50.0 mg/kg/injection, schedule: Q01DX005 (ip), vehicle: saline with Tween-80) 88 % of control; (dose: 100.0 mg/kg/injection, schedule: Q01DX005 (ip), vehicle: saline with Tween-80) 101 % of control; (dose: 200.0 mg/kg/injection, schedule: Q01DX005 (ip), vehicle: saline with Tween-80) 97 % of control.
Turning to `CCCCN(CCCC)CCNc1ccc(Cl)c2oc3cc(C)ccc3c(=O)c12`, the T/C is, setting by setting: under setting [5], 100 % of control; under setting [6], 104 % of control; under setting [2], 100 % of control; under setting [7], 104 % of control; under setting [3], 100 % of control.
For `COc1c(C)c(OCC=C(C)C)cc(CO)c1CO`, the T/C is 109 % of control (dose: 50.0 mg/kg/injection, schedule: Q01DX009 (ip), vehicle: Klucel (hydroxypropylcellulose) (HPC)); 109 % of control under setting [8]; 100 % of control under setting [9].
As to `NC(=S)N/N=C/C(=N\NC(N)=S)C(O)C(O)C(O)CO` (centres undefined), the T/C under setting [10] was 100 % of control; the T/C under setting [5] was 95 % of control; the T/C under setting [6] was 100 % of control; the T/C (dose: 100.0 mg/kg/injection, schedule: Q04DX003 (ip), vehicle: saline sonified) was 100 % of control.
Take `CNC(=S)N/N=C/C(=O)c1ccco1`: the T/C runs as follows: (dose: 22.5 mg/kg/injection, schedule: Q01DX009 (ip), vehicle: saline with Tween-80) 104 % of control; (dose: 45.0 mg/kg/injection, schedule: Q01DX009 (ip), vehicle: saline with Tween-80) 98 % of control; (dose: 90.0 mg/kg/injection, schedule: Q01DX009 (ip), vehicle: saline with Tween-80) 105 % of control.
For `O=C(O)C(CCO)C(=O)C(F)(F)F` (centres undefined), the T/C runs as follows: (dose: 25.0 mg/kg/injection, schedule: Q01DX009 (ip), vehicle: other) 98 % of control; (dose: 50.0 mg/kg/injection, schedule: Q01DX009 (ip), vehicle: other) 98 % of control; (dose: 100.0 mg/kg/injection, schedule: Q01DX009 (ip), vehicle: other) 91 % of control.
With `O=C1CC(Cl)C(=O)N1c1ccccc1` (centres undefined), the T/C is 108 % of control (dose: 75.0 mg/kg/injection, schedule: Q04DX003 (ip), vehicle: saline with Tween-80); 104 % of control (dose: 150.0 mg/kg/injection, schedule: Q04DX003 (ip), vehicle: saline with Tween-80); 104 % of control (dose: 300.0 mg/kg/injection, schedule: Q04DX003 (ip), vehicle: saline with Tween-80).
On to `O=C(O)C(Cc1ccc(O)cc1)c1ccccc1` (centres undefined), for which the T/C reads like this: under setting [8], 86 % of control; under setting [11], 90 % of control; under setting [9], 95 % of control; under setting [12], 90 % of control; under setting [13], 109 % of control; under setting [14], 95 % of control.
Consider `O=NN(CCF)C(=O)NC1CCC(NC(=O)N(CCF)N=O)CC1` (centres undefined), for which the T/C was 186 % of control (dose: 16.5 mg/kg/injection, schedule: Q04DX003 (ip), vehicle: saline with Tween-80); 272 % of control (dose: 33.0 mg/kg/injection, schedule: Q04DX003 (ip), vehicle: saline with Tween-80); 272 % of control (dose: 66.0 mg/kg/injection, schedule: Q04DX003 (ip), vehicle: saline with Tween-80); 272 % of control under setting [2]; 272 % of control (dose: 132.0 mg/kg/injection, schedule: Q04DX003 (ip), vehicle: alcohol); 200 % of control under setting [3].
In the case of `COc1cccc(Sc2ccc([N+](=O)[O-])c3nonc23)c1`, the T/C under setting [15] is 102 % of control and the T/C under setting [10] is 107 % of control.
For `c1csc(C2Nc3ccccc3N2)c1`, the T/C was 105 % of control under setting [5], 99 % of control under setting [6] and 119 % of control under setting [7].
On to `CCCCCCCCCCCCCCCCn1/c(=N/N=C/c2ccccc2S(=O)(=O)O)sc2ccccc21`, for which the T/C under setting [11] is 104 % of control; the T/C under setting [9] is 95 % of control; the T/C under setting [12] is 118 % of control; the T/C under setting [13] was 95 % of control; the T/C under setting [14] was 95 % of control.
For `O=C(O)CCSc1ncnc2nc[nH]c12`, the T/C is 104 % of control under setting [15]; 109 % of control under setting [10]; 109 % of control under setting [5]; 100 % of control under setting [2]; 113 % of control under setting [3]; 104 % of control under setting [4].
For `Nc1ccc(Oc2ccc(Cl)cc2)c(Cl)c1`, the T/C by setting is: under setting [2], 100 % of control; under setting [3], 95 % of control; under setting [4], 104 % of control.
As for `C[N+]1(C2CCC3CCC2C3O)CCOCC1` (centres undefined), the T/C was 91 % of control and 92 % of control under setting [1]; 100 % of control (dose: 25.0 mg/kg/injection, schedule: Q01DX009 (ip), vehicle: saline); 91 % of control and 92 % of control (dose: 50.0 mg/kg/injection, schedule: Q01DX009 (ip), vehicle: saline); 100 % of control and 90 % of control (dose: 100.0 mg/kg/injection, schedule: Q04DX003 (ip), vehicle: saline); 90 % of control (dose: 200.0 mg/kg/injection, schedule: Q04DX003 (ip), vehicle: saline).
On to `C/C=C1/C(=O)O[C@]23C=C[C@@H]4C(C(=O)OC)=CO[C@H](O[C@@H]12)[C@@H]43`, for which the T/C is 110 % of control (dose: 0.27 mg/kg/injection, schedule: Q01DX009 (ip), vehicle: saline); 110 % of control (dose: 0.55 mg/kg/injection, schedule: Q01DX009 (ip), vehicle: saline); 110 % of control (dose: 1.1 mg/kg/injection, schedule: Q01DX009 (ip), vehicle: saline); 110 % of control (dose: 2.2 mg/kg/injection, schedule: Q01DX009 (ip), vehicle: saline); 115 % of control (dose: 165.0 micrograms/kg/injection, schedule: Q01DX009 (ip), vehicle: Klucel (hydroxypropylcellulose) (HPC)); 115 % of control (dose: 310.0 micrograms/kg/injection, schedule: Q01DX009 (ip), vehicle: Klucel (hydroxypropylcellulose) (HPC)). The T/C (dose: 1250.0 micrograms/kg/injection, schedule: Q01DX009 (ip), vehicle: Klucel (hydroxypropylcellulose) (HPC)) is 115 % of control.
